Reference: patent US12201632B2, “Levoketoconazole for treatment of congenital adrenal hyperplasia and primary aldosteronism” (Strongbridge Dublin Limited, priority 2018, dated 2025)

Key:
[1] = test system: human primary adrenocortical cultures; assay: Cortisol production in human primary adrenocortical cultures, comparison across cultures; format: cell-based
Experimental: (§1) To obtain primary cultures, adrenal specimens (adrenocortical adenomas, adrenal hyperplasias and adrenocortical carcinomas) were collected after adrenalectomy at the department of Surgery, Erasmus University Medical Center, Rotterdam, the Netherlands, between April 2016 and May 2018. The study was conducted under guidelines that have been approved by the Medical Ethics Committee of the Erasmus Medical Center and informed consent was obtained from all patients. Immediately after surgery, specimens were minced into small pieces of 2-3 mm^3, washed in culture medium and centrifuged for 5 minutes at 600 g. The tissue was stored overnight in culture medium at 4° C., where after the tissue was centrifuged again and the supernatant was removed. Fragments were dissociated using 10-25 ml collagenase type 1 (2 mg/ml: Sigma-Aldrich), followed by incubation at 37° C. for up to two hours. Ficoll (GE healthcare) density gradient separation was used once or twice as required in order to separate contaminating red blood cells from the tumor cells. Cell viability and cell amount were counted by trypan blue exclusion. Dissociated cells were plated at a density of 10^5 cells per well. ACTH-secreting corticotroph pituitary adenoma tissue from patients with Cushing's disease (n=2) was available after transsphenoidal surgery. Single-cell suspensions of the pituitary adenoma tissues were prepared as previously described in detail.
(§2) Primary culture conditions for primary cultures were similar as described in the section ‘cell culture and compounds’, but with small adjustments: ACTH was used at a concentration of 85 pM (250 pg/mL), treatment was started 3-4 days after plating of the cells and cells were incubated for 3 days, and; for pituitary primary cultures, levoketoconazole and racemic ketoconazole were only tested at a concentration of 1 μM. Owing to a limited number of cells obtained from the specimens, not all experiments were carried out in every primary culture.
(§3) Cortisol concentrations were measured in the supernatant using a chemiluminescence immunoassay system (Immulite 2000XPi; Siemens DPC Inc., Los Angeles, Calif., USA). In addition, we carried out multi-steroid analysis by liquid chromatography/mass spectrometry (LC/MS-MS) to accurately quantify androstenedione, corticosterone, cortisol, 11-deoxycortisol, DHEA, DHEAS, progesterone, 17-hydroxyprogesterone, and testosterone. Concentrations that were tested on the LC/MS-MS were closest to 50% inhibition or maximal inhibition of cortisol as determined by the immunoassay. Steroids were quantified with respect to a calibration series, with internal standards. Steroids were quantified on a Xevo TQS LC-MS/MS (Waters Chromatography).
(§4) Statistical analysis was performed using Graphpad Prism 6.0 (Graphpad Software, San Diego, CA). Non-linear regression curve fitting program was used to calculate the half maximal inhibitory concentrations (IC50) on cortisol production. Effects of both compounds on the steroid profile were measured as absolute change compared to control and compared using the Student's t-test. When assessing differences between effects of both compounds, the percentage change was evaluated and compared in order to correct for differences in the vehicle treated control cells. Values of P<0.05 were considered statistically significant and data are presented as mean SEM.

[2] = test system: EAS associated adrenal hyperplasia no. 1 primary culture; assay: Steroid profile by LC/MS-MS in EAS associated adrenal hyperplasia no. 1; format: cell-based, human; details: for 11-DOC absolute change vs ACTH stimulation with vehicle / 11-DOC percentage change vs ACTH stimulation with vehicle / 17-OHP absolute change vs ACTH stimulation with vehicle / 17-OHP percentage change vs ACTH stimulation with vehicle / Androstenedione absolute change vs ACTH stimulation with vehicle / Androstenedione percentage change vs ACTH stimulation with vehicle / Corticosterone absolute change vs ACTH stimulation with vehicle / Corticosterone percentage change vs ACTH stimulation with vehicle / Cortisol absolute change vs ACTH stimulation with vehicle / Cortisol percentage change vs ACTH stimulation with vehicle / DHEA absolute change vs ACTH stimulation with vehicle / DHEAS absolute change vs ACTH stimulation with vehicle / Prog absolute change vs ACTH stimulation with vehicle / Prog percentage change vs ACTH stimulation with vehicle / Testosterone absolute change vs ACTH stimulation with vehicle / Testosterone percentage change vs ACTH stimulation with vehicle: EAS associated adrenal hyperplasia no. 1, ACTH; for 11-DOC absolute change vs ACTH stimulation with vehicle / 11-DOC percentage change vs ACTH stimulation with vehicle / 17-OHP absolute change vs ACTH stimulation with vehicle / 17-OHP percentage change vs ACTH stimulation with vehicle / Androstenedione absolute change vs ACTH stimulation with vehicle / Androstenedione percentage change vs ACTH stimulation with vehicle / Corticosterone absolute change vs ACTH stimulation with vehicle / Corticosterone percentage change vs ACTH stimulation with vehicle / Cortisol absolute change vs ACTH stimulation with vehicle / Cortisol percentage change vs ACTH stimulation with vehicle / DHEA absolute change vs ACTH stimulation with vehicle / DHEAS absolute change vs ACTH stimulation with vehicle / Prog absolute change vs ACTH stimulation with vehicle / Prog percentage change vs ACTH stimulation with vehicle / Testosterone absolute change vs ACTH stimulation with vehicle / Testosterone percentage change vs ACTH stimulation with vehicle / 11-DOC absolute change vs control / 11-DOC percentage change vs control / 17-OHP absolute change vs control / 17-OHP percentage change vs control / Androstenedione absolute change vs control / Androstenedione percentage change vs control / Corticosterone absolute change vs control / Corticosterone percentage change vs control / Cortisol absolute change vs control / Cortisol percentage change vs control / DHEA absolute change vs control / DHEAS absolute change vs control / Prog absolute change vs control / Prog percentage change vs control / Testosterone absolute change vs control / Testosterone percentage change vs control: 3 days; for 11-DOC absolute change vs control / 11-DOC percentage change vs control / 17-OHP absolute change vs control / 17-OHP percentage change vs control / Androstenedione absolute change vs control / Androstenedione percentage change vs control / Corticosterone absolute change vs control / Corticosterone percentage change vs control / Cortisol absolute change vs control / Cortisol percentage change vs control / DHEA absolute change vs control / DHEAS absolute change vs control / Prog absolute change vs control / Prog percentage change vs control / Testosterone absolute change vs control / Testosterone percentage change vs control: EAS associated adrenal hyperplasia no. 1, Basal
Experimental: as §1, §2, §3, §4

[3] = cited from earlier work
[4] = six of the ten conditions with direct comparison in the same patient

CC(=O)N1CCN(c2ccc(OCC3COC(Cn4ccnc4)(c4ccc(Cl)cc4Cl)O3)cc2)CC1 (racemic) [racemic ketoconazole, Ketoconazole]
mean difference in IC50 between both compounds ([1]; four remaining cultures): 5% | range of difference in IC50 between both compounds ([1]; four remaining cultures): 1-8% | mean increase IC50 compared to levoketoconazole [1, 4]: 52% | range of increase IC50 compared to levoketoconazole [1, 4]: 33-113% | 11-DOC absolute change vs ACTH stimulation with vehicle ([2]; 0.05 μM): +76.63 nmol/l | 11-DOC percentage change vs ACTH stimulation with vehicle ([2]; 0.05 μM): (+25%**) | 17-OHP absolute change vs ACTH stimulation with vehicle ([2]; 0.05 μM): +8.133 nmol/l | 17-OHP percentage change vs ACTH stimulation with vehicle ([2]; 0.05 μM): (+52%) | Androstenedione absolute change vs ACTH stimulation with vehicle ([2]; 0.05 μM): -7.475 nmol/L | Androstenedione percentage change vs ACTH stimulation with vehicle ([2]; 0.05 μM): (−39%) | Corticosterone absolute change vs ACTH stimulation with vehicle ([2]; 0.05 μM): +105.7 nmol/l | Corticosterone percentage change vs ACTH stimulation with vehicle ([2]; 0.05 μM): (+31%) | Cortisol absolute change vs ACTH stimulation with vehicle ([2]; 0.05 μM): -62.25 nmol/L | Cortisol percentage change vs ACTH stimulation with vehicle ([2]; 0.05 μM): −11% | DHEA absolute change vs ACTH stimulation with vehicle ([2]; 0.05 μM): <LLQ | DHEAS absolute change vs ACTH stimulation with vehicle ([2]; 0.05 μM): <LLQ | Prog absolute change vs ACTH stimulation with vehicle ([2]; 0.05 μM): +3.425 nmol/l | Prog percentage change vs ACTH stimulation with vehicle ([2]; 0.05 μM): +96% | Testosterone absolute change vs ACTH stimulation with vehicle ([2]; 0.05 μM): -0.1750 nmol/L | Testosterone percentage change vs ACTH stimulation with vehicle ([2]; 0.05 μM): (−28%) | Cortisol percentage change vs ACTH stimulation with vehicle ([2]; 0.05 μM, listed as RK): (−11%*) | Prog percentage change vs ACTH stimulation with vehicle ([2]; 0.05 μM, listed as RK): (+96%**) | 11-DOC absolute change vs ACTH stimulation with vehicle ([2]; 5 μM): -402.7 nmol/L | 11-DOC percentage change vs ACTH stimulation with vehicle ([2]; 5 μM): (−99%) | 17-OHP absolute change vs ACTH stimulation with vehicle ([2]; 5 μM): -28.44 nmol/L | 17-OHP percentage change vs ACTH stimulation with vehicle ([2]; 5 μM): (−90%) | Androstenedione absolute change vs ACTH stimulation with vehicle ([2]; 5 μM): -14.79 nmol/L | Androstenedione percentage change vs ACTH stimulation with vehicle ([2]; 5 μM): (−98%) | Corticosterone absolute change vs ACTH stimulation with vehicle ([2]; 5 μM): -397.6 nmol/L | Corticosterone percentage change vs ACTH stimulation with vehicle ([2]; 5 μM): (−100%) | Cortisol absolute change vs ACTH stimulation with vehicle ([2]; 5 μM): -643.5 nmol/L | Cortisol percentage change vs ACTH stimulation with vehicle ([2]; 5 μM): (−100%) | DHEA absolute change vs ACTH stimulation with vehicle ([2]; 5 μM): <LLQ | DHEAS absolute change vs ACTH stimulation with vehicle ([2]; 5 μM): <LLQ | Prog absolute change vs ACTH stimulation with vehicle ([2]; 5 μM): +39.86 nmol/l | Prog percentage change vs ACTH stimulation with vehicle ([2]; 5 μM): (+1292%) | Testosterone absolute change vs ACTH stimulation with vehicle ([2]; 5 μM): -0.4350 nmol/L | Testosterone percentage change vs ACTH stimulation with vehicle ([2]; 5 μM): (−85%) | 11-DOC absolute change vs control ([2]; 0.05 μM): -62.23 nmol/L | 11-DOC percentage change vs control ([2]; 0.05 μM): (−27%) | 17-OHP absolute change vs control ([2]; 0.05 μM): +0.6833 nmol/l | 17-OHP percentage change vs control ([2]; 0.05 μM): (+7.5%) | Androstenedione absolute change vs control ([2]; 0.05 μM): -5.850 nmol/L | Androstenedione percentage change vs control ([2]; 0.05 μM): (−55%) | Corticosterone absolute change vs control ([2]; 0.05 μM): -68.60 nmol/L | Corticosterone percentage change vs control ([2]; 0.05 μM): (−32%) | Cortisol absolute change vs control ([2]; 0.05 μM): -86.78 nmol/L | Cortisol percentage change vs control ([2]; 0.05 μM): (−57%) | DHEA absolute change vs control ([2]; 0.05 μM): <LLQ | DHEAS absolute change vs control ([2]; 0.05 μM): <LLQ | Prog absolute change vs control ([2]; 0.05 μM): +4.475 nmol/l | Prog percentage change vs control ([2]; 0.05 μM): (+108%) | Testosterone absolute change vs control ([2]; 0.05 μM): -0.1500 nmol/L | Testosterone percentage change vs control ([2]; 0.05 μM): (−32%) | 11-DOC absolute change vs control ([2]; 5 μM): -270.7 nmol/L | 11-DOC percentage change vs control ([2]; 5 μM): (−98%) | 17-OHP absolute change vs control ([2]; 5 μM): -15.07 nmol/L | 17-OHP percentage change vs control ([2]; 5 μM): (−92%) | Androstenedione absolute change vs control ([2]; 5 μM): -8.219 nmol/L | Androstenedione percentage change vs control ([2]; 5 μM): (−94%) | Corticosterone absolute change vs control ([2]; 5 μM): -166.5 nmol/L | Corticosterone percentage change vs control ([2]; 5 μM): (−98%) | Cortisol absolute change vs control ([2]; 5 μM): -165.2 nmol/L | Cortisol percentage change vs control ([2]; 5 μM): (−99%) | DHEA absolute change vs control ([2]; 5 μM): <LLQ | DHEAS absolute change vs control ([2]; 5 μM): <LLQ | Prog absolute change vs control ([2]; 5 μM): +19.89 nmol/l | Prog percentage change vs control ([2]; 5 μM): (+537%***) | Testosterone absolute change vs control ([2]; 5 μM): -0.2688 nmol/L | Testosterone percentage change vs control ([2]; 5 μM): (−66%) | total change of steroids ([2]; EAS associated adrenal hyperplasia no. 1, basal condition): -218.5 nmol/L | total sum of change of the steroids: increase ([2]; EAS associated adrenal hyperplasia no. 1, under ACTH stimulation): 124.0 nmol/L | accumulation in a subject's body over repeated dosing [3]: accumulate in a subject's body over repeated dosing
